The target of experiment [1] is angiotensin II AT1 receptor. Kind of experiment: Assay A: Angiotensin II binding activity, rat uterine membrane preparation, 125I-AII displacement.
For a further experiment, the system named is rabbit aortic rings. Kind of experiment: Assay B: In vitro vascular smooth muscle response for AII (antagonist activity, pA2). To be noted: Oryctolagus cuniculus, two values in a cell = two determinations. Type of experiment: cell-based. As for the experimental part:
Assay B: In Vitro Vascular Smooth Muscle-Response for AII
The compounds of the invention were tested for antagonist activity in rabbit aortic rings. Male New Zealand white rabbits (2-2.5 kg) were sacrificed using an overdose of pentobarbital and exsanguinated via the carotid arteries. The thoracic aorta was removed, cleaned of adherent fat and connective tissue and then cut into 3-mm ring segments. The endothelium was removed from the rings by gently sliding a rolled-up piece of filter paper into the vessel lumen. The rings were then mounted in a water-jacketed tissue bath, maintained at 37° C., between moveable and fixed ends of a stainless steel wire with the moveable end attached to an FT03 Grass transducer coupled to a Model 7D Grass Polygraph for recording isometric force responses. The bath was filled with 20 ml of oxygenated (95% oxygen/5% carbon dioxide) Krebs solution of the following composition (mM): 130 NaCl, 15 NaHCO3, […], 1.2 NaH2PO4, 1.2 MgSO4, 2.5 CaCl2, and 11.4 glucose. The preparations were equilibrated for one hour before approximately one gram of passive tension was placed on the rings. Angiotensin II concentration-response curves were then recorded (3×10^−10 to 1×10^−5 M). Each concentration of AII was allowed to elicit its maximal contraction, and then AII was washed out repeatedly for 30 minutes before rechallenging with a higher concentration of AII. Aorta rings were exposed to the test antagonist at 10^−5 M for 5 minutes before challenging with AII. Adjacent segments of the same aorta ring were used for all concentration-response curves in the presence or absence of the test antagonist. The effectiveness of the test compound was expressed in terms of pA2 values and were calculated according to H. O. Schild [Br. J. Pharmacol. Chemother., 2, 189-206 (1947)]. The pA2 value is […] which increases the EC50 value for AII by a factor of two. Each test antagonist was evaluated in aorta rings from two rabbits.

By IC50 is commonly meant the midpoint of a concentration-inhibition curve. A lower IC50 goes with greater potency. In general, Kb refers to the affinity of an antagonist, worked out from how it opposes an agonist. Higher therefore signals a less potent antagonist. Take `CCCCc1nc(C2CCCCC2)nn1Cc1ccc(-c2ccccc2-c2nnn[nH]2)cc1` [Compound 77]: the IC50 in experiment [1] stood at 15000 nM. In addition, the Kb in the experiment with rabbit aortic rings was 1700 nM.
Regarding `CCCCc1nc(CCCNC(=O)OC(C)(C)C)n(Cc2ccc(-c3ccccc3-c3nnn[nH]3)cc2)n1` [Compound 78], in experiment [1], the IC50 stood at 101 nM. In the experiment with rabbit aortic rings, this molecule gave a Kb of 100 nM.
For `CCCCc1nc(CCCNC(=O)OC(C)(C)C)nn1Cc1ccc(-c2ccccc2-c2nnn[nH]2)cc1` [Compound 79], in that order: 4.9 nM and 0.631 nM.
For `CCCCc1nc(C(F)(F)C(F)(F)F)nn1Cc1ccc(-c2ccccc2-c2nnn[nH]2)cc1` [Compound 80], in that order: 25 nM and 7.94 nM.
As to `CCCCc1nc(CCCN)n(Cc2ccc(-c3ccccc3-c3nnn[nH]3)cc2)n1` [Compound 82], in experiment [1], the IC50 was found to be 7.9 nM. The antagonist dissociation constant (Kb) with rabbit aortic rings is 3.16 nM.
For `CCCCc1nc(CCCN)nn1Cc1ccc(-c2ccccc2-c2nnn[nH]2)cc1` [Compound 83], in that order: 3.6 nM and 5.01 nM.
Consider `CCCCc1nc(CC2CCCCC2)n(Cc2ccc(-c3ccccc3-c3nnn[nH]3)cc2)n1` [Compound 84], for which the IC50 in experiment [1] was 16 nM. In the experiment with rabbit aortic rings, this molecule had a Kb of 79.4 nM.
As for `CCCCc1nc(CC2CCCCC2)nn1Cc1ccc(-c2ccccc2-c2nnn[nH]2)cc1` [Compound 85], the IC50 in experiment [1] was found to be 8.7 nM. For the same molecule, in the experiment with rabbit aortic rings, the antagonist dissociation constant (Kb) is 1.26 nM.
For `CCCCc1nc(CC)nn1Cc1ccc(-c2ccccc2C(=O)O)cc1` [Compound 86], in that order: 9 nM and 15.8 nM.
For `CCCCc1nc(CC)n(Cc2ccc(-c3ccccc3C(=O)O)cc2)n1` [Compound 87], in that order: 91 nM and 15.8 nM.
For `CCCCc1nc(C)n(Cc2ccc(-c3ccccc3C(=O)O)cc2)n1` [Compound 88], in that order: 50 nM and 20 nM.
Take `CCCCc1nn(CCCC)c(=O)n1Cc1ccc(-c2ccccc2C(=O)O)cc1` [Compound 89]: the IC50 in experiment [1] amounted to 18 nM. This molecule had an antagonist equilibrium constant (Kb) in the experiment on rabbit aortic rings of 12.6 nM.
For `CCCCc1nn(CCCC)c(=O)n1Cc1ccc(-c2ccccc2-c2nnn[nH]2)cc1` [Compound 90], the IC50 in experiment [1] is 5.6 nM. Also, in the experiment with rabbit aortic rings, the Kb is 1 nM.
As for `CCCCc1nn(CC(=O)C23CC4CC(CC(C4)C2)C3)c(=O)n1Cc1ccc(-c2ccccc2-c2nn[nH]n2)cc1` [Compound 91], in experiment [1], the IC50 is 30 nM. In the experiment on rabbit aortic rings, this molecule had a Kb of 2.51 nM.
Consider `CCCCc1nn(CCCc2ccccc2)c(=O)n1Cc1ccc(-c2ccccc2-c2nn[nH]n2)cc1` [Compound 92], for which the IC50 in experiment [1] turned out to be 35 nM. In the experiment with rabbit aortic rings, the antagonist dissociation constant (Kb) is 12.6 nM.
For `CCCCc1nn(CC(=O)OC(C)(C)C)c(=O)n1Cc1ccc(-c2ccccc2-c2nn[nH]n2)cc1` [Compound 95], in that order: 66 nM and 6.31 nM.
For `CCCCCCn1nc(CCCC)n(Cc2ccc(-c3ccccc3-c3nn[nH]n3)cc2)c1=O` [Compound 96], in that order: 21 nM and 10 nM.
For `CCCCc1nn(CC(=O)OCC)c(=O)n1Cc1ccc(-c2ccccc2-c2nn[nH]n2)cc1` [Compound 97], in that order: 280 nM and 20 nM.
In the case of `CCCCc1nn(CC(=O)O)c(=O)n1Cc1ccc(-c2ccccc2-c2nn[nH]n2)cc1` [Compound 98], the IC50 in experiment [1] worked out at 22 nM. For the same molecule, the Kb with rabbit aortic rings was 7.94 nM.
In the same order, the values of `CCCCc1nn(Cc2cccc3ccccc23)c(=O)n1Cc1ccc(-c2ccccc2-c2nn[nH]n2)cc1` [Compound 99] are 280 nM and 316 nM.
For `CCCCc1nn(CCC2CCCCC2)c(=O)n1Cc1ccc(-c2ccccc2-c2nn[nH]n2)cc1` [Compound 100], the IC50 in experiment [1] is 4.4 nM. In the experiment on rabbit aortic rings, this molecule showed a Kb of 0.398 nM.
For the molecule `CCCCCn1nc(CCCC)n(Cc2ccc(-c3ccccc3-c3nn[nH]n3)cc2)c1=O` [Compound 101], in experiment [1], the IC50 is 36 nM. The Kb with rabbit aortic rings was 15.8 nM.
For `CCCCc1nn(CC(OCC(=O)O)c2ccccc2)c(=O)n1Cc1ccc(-c2ccccc2-c2nn[nH]n2)cc1` (centres unmarked) [Compound 102], in that order: 43 nM and 20 nM.
In the same order, the values of `CCCCc1nn(CCC(C)CC(C)(C)C)c(=O)n1Cc1ccc(-c2ccccc2-c2nn[nH]n2)cc1` (centres unmarked) [Compound 103] are 12 nM and 10 nM.
In experiment [1], `CCCCc1nn(/C(Cc2ccccc2)=C(/OCc2ccccc2)c2ccccc2)c(=O)n1Cc1ccc(-c2ccccc2-c2nn[nH]n2)cc1` [Compound 104] showed an IC50 of 15 nM. Also, the Kb with rabbit aortic rings was 10 nM.
Molecule `CCCCc1nn(C(Cc2ccccc2)C(=O)c2ccccc2)c(=O)n1Cc1ccc(-c2ccccc2-c2nn[nH]n2)cc1` (centres unmarked) [Compound 105] gave an IC50 in experiment [1] of 290 nM. Also, in the experiment with rabbit aortic rings, the Kb was 251 nM.
The molecule `CCCCc1nn(C(=O)CCC)c(=O)n1Cc1ccc(-c2ccccc2-c2nn[nH]n2)cc1` [Compound 106] came in with an IC50 in experiment [1] of 48 nM. Besides, the Kb with rabbit aortic rings is 20 nM.
For `CCCCc1nn(CC(=O)c2cc(OC)ccc2OC)c(=O)n1Cc1ccc(-c2ccccc2-c2nn[nH]n2)cc1` [Compound 107], in that order: 180 nM and 5.01 nM.
In experiment [1], `CCCCc1nn(Cc2ccc3ccccc3c2)c(=O)n1Cc1ccc(-c2ccccc2-c2nn[nH]n2)cc1` [Compound 110] registered an IC50 of 590 nM. In the experiment with rabbit aortic rings, the Kb was 398 nM.
For `CCCCc1nn(C(CC(=O)OCC)C(=O)c2ccccc2)c(=O)n1Cc1ccc(-c2ccccc2-c2nn[nH]n2)cc1` (centres unmarked) [Compound 112], in that order: 2000 nM and 6310 nM.
In the same order, the values of `CCCCc1nn(CCCCC(=O)O)c(=O)n1Cc1ccc(-c2ccccc2-c2nn[nH]n2)cc1` [Compound 114] are 400 nM and 398 nM.
For `CCCCc1nn(C/C=C/c2ccccc2)c(=O)n1Cc1ccc(-c2ccccc2-c2nn[nH]n2)cc1` [Compound 116], in that order: 230 nM and 316 nM.
Regarding `CCCCn1nc(C(C#N)CCC)n(Cc2ccc(-c3ccccc3-c3nn[nH]n3)cc2)c1=O` (centres unmarked) [Compound 117], the IC50 in experiment [1] turned out to be 170 nM. In the experiment with rabbit aortic rings, the Kb is 316 nM.
In the same order, the values of `CCCCc1nc(Cc2ccc(-c3ccccc3C(=O)O)cc2)n(CCCC)n1` [Compound 137] are 220 nM and 5.01 nM.
For `CCCCc1nc(Cc2ccc(-c3ccccc3C(=O)O)cc2)nn1CCCC` [Compound 138], in that order: 130 nM and 6.31 nM.
For `CCCCc1nc(Cc2ccc(-c3ccccc3-c3nnn[nH]3)cc2)n(CCCC)n1` [Compound 139], in that order: 0.27 nM and 501 nM.
In experiment [1], `CCCCc1nc(Cc2ccc(-c3ccccc3-c3nnn[nH]3)cc2)nn1CCCC` [Compound 140] gave an IC50 of 0.031 nM. The molecule also had a Kb with rabbit aortic rings of 7.94 nM.
With `CCCCn1nc(C(F)(F)CCC)nc1Cc1ccc(-c2ccccc2-c2nnn[nH]2)cc1` [Compound 141], the IC50 in experiment [1] came to 0.11 nM. In the experiment with rabbit aortic rings, this molecule showed a Kb of 9.55 nM.
Take `CCCCc1cn(CCCC)c(=O)n1Cc1ccc(-c2ccccc2-c2nnn[nH]2)cc1` [Compound 143]: the IC50 in experiment [1] was 0.052 nM. The molecule also gave a Kb in the experiment on rabbit aortic rings of 20 nM.
In the same order, the values of `CCCCc1cn(CCc2ccccc2)c(=O)n1Cc1ccc(-c2ccccc2-c2nnn[nH]2)cc1` [Compound 144] are 0.088 nM and 20 nM.
In the same order, the values of `CCCCc1cn(CCc2cccs2)c(=O)n1Cc1ccc(-c2ccccc2-c2nnn[nH]2)cc1` [Compound 145] are 0.48 nM and 200 nM.
In turn, `CCCCc1cn(-c2ccccc2Cl)c(=O)n1Cc1ccc(-c2ccccc2-c2nnn[nH]2)cc1` [Compound 146] returned an IC50 in experiment [1] of 0.072 nM. Besides, in the experiment with rabbit aortic rings, the Kb was 398 nM.
For `CCCc1cn(CCC)c(=O)n1Cc1ccc(-c2ccccc2-c2nnn[nH]2)cc1` [Compound 149], in that order: 1.1 nM and 794 nM.
For `CCCCc1nc(CCCC)n(Cc2ccc(-n3c(Cl)cc(Cl)c3-c3nnn[nH]3)cc2)n1` [Compound 154], in that order: 97 nM and 6.46 nM.
As to `CCCCn1nc(/C=C/c2cccs2)nc1Cc1ccc(-c2ccccc2-c2nnn[nH]2)nc1` [Compound 165], in experiment [1], the IC50 is 410 nM. The Kb with rabbit aortic rings was 126 nM.
With `CCCCCn1nc(CCCC)nc1Cc1ccc(-c2ccccc2-c2nnn[nH]2)nc1` [Compound 166], the IC50 in experiment [1] is 160 nM. For the same molecule, in the experiment on rabbit aortic rings, the Kb was 26.9 nM.
For `CCCCCc1nc(Cc2ccc(-c3ccccc3-c3nnn[nH]3)nc2)n(CCCC)n1` [Compound 167], in that order: 370 nM and 83.2 nM.
Consider `CCCCc1nc(Cc2ccc(-c3ccccc3-c3nnn[nH]3)nc2)n(CC(CC)CC)n1` [Compound 168], for which the IC50 in experiment [1] turned out to be 420 nM. This molecule also gave a Kb in the experiment on rabbit aortic rings of 20.4 nM.
In the case of `CCCCn1nc(C(F)CCC)nc1Cc1ccc(-c2ccccc2-c2nnn[nH]2)nc1` (centres unmarked) [Compound 172], the IC50 in experiment [1] worked out at 70 nM. Moreover, in the experiment on rabbit aortic rings, the Kb is 70.8 nM.

The values above are taken from patent publication US20040102423A1, “Spironolactone and angiotensin II antagonist combination therapy for treatment of congestive heart failure” (G.D. Searle & Co., priority 1995, published 2004).
